The text below walks through data of PubChem BioAssay (NCI).

Holding throughout (test): growth of human tumour cells (NCI), 48 h
Assay [1] concerns KM12 colon.
The subject of assay [2] is MOLT-4 leukemia.
Assay [3] has as its system NCI-H522 lung.
Assay [4] concerns HCC-2998 colon.
The subject of assay [5] is SF-539 CNS.
In assay [6] the test system is CAKI-1 renal.
Assay [7] concerns HOP-62 NSCLC.
Assay [8] has as its system SN12C renal.
The test system of assay [9] is NCI-H460 lung.
In assay [10] the test system is SK-OV-3 ovarian.

Where “and” joins values, the source holds several entries; their conditions need not be identical. Identical values can stand only once.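 Test compounds were applied to cells in 96-well plates for 48 hours at 5 doses. Abbreviation: GI50, concentration required for 50% inhibition of growth. TGI marks complete inhibition of growth.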 A value given as a limit tells only on which side of the number the result lay.

Take `CN1C(=O)CCC(N2C(=O)c3cccc(NCCOCCOCCNC(=O)c4cc5c(o4)C(=O)c4ccccc4C5=O)c3C2=O)C1=O` (stereo not given): the GI50 in assay [1] was 3.35 µM; in assay [2], 2.38 µM; in [3], 1.96 µM; in [4] it was 1.99 µM; in assay [5] it was 1.63 µM; in assay [6], 3.35 µM. The GI50 in [7] is 1.97 µM; in [8], 1.41 µM; in assay [9], 1.33 µM; in [10], 3.84 µM. Also, the TGI in assay [1] was 12.6 µM; in assay [2] it was 5.8 µM; in assay [3], 5.08 µM; in assay [4], 3.96 µM; in assay [5], 3.02 µM; in [6], 12.1 µM. Moreover, the TGI in assay [7] was 3.43 µM; in [8], 2.79 µM; in assay [9], 2.97 µM; in assay [10], 12.4 µM.
For the compound `O=C1C2CCN(CC2)C1CN1CCOCC1` (stereo not given), the TGI in assay [1] was 30.8 µM; in assay [2], 13.8 µM; in assay [3], 1.99 µM; in assay [4], 29.2 µM; in assay [5], 29 µM; in [6], 4.09 µM. Besides, the TGI in assay [7] worked out at 34 µM; in assay [8], 8.28 µM; in assay [9] it was 33.7 µM; in [10] it was 31.7 µM.
Turning to `COC(=O)CCC(=O)Nc1ccc(Cl)cc1C`, the TGI in [1], in assay [2], in [3], in [4], in assay [5] and in [6] was more than 100 µM in each case. The TGI in assay [7], in assay [8], in [9] and in assay [10] was more than 100 µM in each case.
Take `NC(=S)N/N=C/c1ccc(OC(=O)COc2cc(Cl)c(Cl)cc2Cl)cn1`: the GI50 is 5.68 µM in assay [1]; 4.53 µM in assay [2]; 3.17 µM in [3]; 5.84 µM in [4]; 2.37 µM in [5]; 3.97 µM in assay [6]. Also, the GI50 in assay [7] was 3.68 µM; in assay [8] it was 3.58 µM; in assay [9] it was 6.1 µM; in [10], 8.49 µM. The TGI in assay [1] is more than 100 µM; in [2], more than 100 µM; in assay [3] it was 67.5 µM; in [4], more than 100 µM; in [5], 10.3 µM; in assay [6], more than 100 µM. Also, the TGI was 38.4 µM in [7], more than 100 µM in assay [8], more than 100 µM in assay [9] and more than 100 µM in assay [10].
In the case of `CSc1ccc(C2=NN(C(C)=O)C(c3ccc(-c4cc(Cl)c(Cl)cc4Cl)o3)C2)cc1` (stereo not given), the GI50 is 16.9 µM in [1]; 12.1 µM in assay [2]; 13.2 µM in assay [3]; 15.8 µM in assay [4]; 15.8 µM in assay [5]; 19.2 µM in assay [6]. Besides, the GI50 was 15.8 µM in assay [7], 14.5 µM in [8], 17.2 µM in assay [9] and 16.7 µM in assay [10]. The TGI was found to be 35.7 µM in assay [1]; 35.3 µM in [2]; 29.7 µM in assay [3]; 29.6 µM in assay [4]; 29.5 µM in assay [5]; 43.2 µM in assay [6]. Moreover, the TGI was determined as 29.4 µM in [7], 27.6 µM in assay [8], 32.2 µM in [9] and 38.8 µM in assay [10].
In the case of `COc1ccc(-c2ncnc3c2ncn3CC#CCCl)cc1`, the GI50 is 4.85 µM in assay [1]; 2.68 µM in assay [2]; 3.09 µM in [3]; 17.6 µM in assay [4]; 6.48 µM in assay [5]; 1.47 µM in assay [6]. Moreover, the GI50 in assay [7] was 1.79 µM; in assay [8], 2.26 µM; in assay [9] it was 3.27 µM; in assay [10], 10.5 µM. Also, the TGI in assay [1] is 17.5 µM; in assay [2], more than 100 µM; in assay [3], 14 µM; in assay [4] it was 31.8 µM; in [5], 20.9 µM; in assay [6], 3.11 µM. Besides, the TGI in assay [7] is 3.31 µM; in assay [8] it was 6.32 µM; in assay [9], 12.4 µM; in assay [10], 22.7 µM.
As for `C[C@@H]1C[C@H](N)C[C@H](c2ccncc2NC(=O)c2ccc(F)c(-c3c(F)cccc3F)n2)C1`, the GI50 in assay [1] is 12.3 µM and > 10 µM; in assay [2], 4.91 µM and 5.14 µM; in assay [3] it was 13.2 µM and > 10 µM; in assay [4], 3.42 µM and 4.16 µM; in [5], 11.3 µM and > 10 µM; in assay [6], 7.51 µM. Further, the GI50 in [7] is 10.6 µM and > 10 µM; in [8] it was 12.3 µM and > 10 µM; in [9], 13.7 µM and > 10 µM; in assay [10] it was 12.7 µM and > 10 µM. Also, the TGI in [1] was 27.7 µM and > 10 µM; in assay [2], 20.6 µM and > 10 µM; in [3], 28.6 µM and > 10 µM; in assay [4], 18 µM and > 10 µM; in [5], 23.5 µM and > 10 µM; in assay [6] it was more than 10 µM. Also, the TGI was 25.2 µM and > 10 µM in assay [7]; 25.7 µM and > 10 µM in assay [8]; 28.7 µM and > 10 µM in assay [9]; 26.8 µM and > 10 µM in assay [10].
As to `CCC(CC)n1cnc2c(-c3cnc(N)cn3)nc(N3CC4CCC(C3)O4)nc21`, the GI50 is 0.377 µM in [1]; 0.322 µM in [2]; 0.209 µM in [3]; 0.465 µM in assay [4]; 0.51 µM in assay [5]; 0.108 µM in assay [6]. Besides, the GI50 in assay [7] is 1.08 µM; in assay [8], 0.294 µM; in assay [9], 0.17 µM; in assay [10], 0.142 µM. Moreover, the TGI is more than 100 µM in assay [1]; 53.4 µM in [2]; more than 100 µM in assay [3]; more than 100 µM in [4]; 4.19 µM in [5]; 1.73 µM in assay [6]. The TGI in assay [7] was more than 100 µM; in assay [8], more than 100 µM; in assay [9], more than 100 µM; in assay [10] it was 0.789 µM.
